# Assay results reported in ChEMBL document CHEMBL3137667, “[Drug-induced liver injury; fourteenth updated edition of the bibliographic database of liver injuries and related drugs]” (Gastroenterol Clin Biol, 2004).
# Experiments:
# [1] = human
# [2] = Times to onset, minimal and maximal, observed in the indexed observations. [column 'DELAI' in source]; settings: human
# [3] = human; remark: listed apart in the source
# [4] = human; remark: listed apart in the source
# [5] = Presence of at least one case with successful reintroduction. [column 'REINT' in source]; settings: human
# [6] = human, serum
# [7] = human; remark: listed apart in the source
# [8] = human; remark: listed apart in the source
# [9] = Comments (NB not yet translated). [column 'COMMENTAIRES' in source]; settings: human
# [10] = Highest frequency of acute liver toxicity observed during clinical trials, expressed as a percentage. [column '% AIGUE' in source]; settings: human
# [11] = human; remark: listed apart in the source
# [12] = human; remark: listed apart in the source
# [13] = Proposed mechanism(s) of liver damage. [column 'MEC' in source]; settings: human
# [14] = human; remark: listed apart in the source
# [15] = human; remark: listed apart in the source
# [16] = Highest frequency of moderate liver toxicity observed during clinical trials, expressed as a percentage. [column '% BIOL' in source]; settings: human
# [17] = human, serum, 4383 h
# [18] = human, serum; remark: listed apart in the source
# 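Wherever Hepatotoxicity (association with vascular disease) is given: count of indexed literature references reporting vascular liver injury in humans, e.g. peliosis hepatitis, hepatic veno-occlusive disease or Budd-Chiari syndrome.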
# 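Wherever Hepatotoxicity (benign tumour) is given: value is a count of indexed literature references citing a benign tumour confirmed by histopathology.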
# 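Wherever Hepatotoxicity (choleostasis) is given: human cholestatic liver injury, shown by histopathology or by peak ALT or AST elevation over alkaline phosphatase ratio below 2, value counts indexed literature reports.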
# 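Wherever Hepatotoxicity (chronic liver disease) is given: chronic liver injury confirmed by histopathology or persistently raised serum aminotransferase activity beyond 6 months, value given as the count of indexed literature references.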
# 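Wherever Hepatotoxicity (cirrhosis) is given: value is a count of indexed literature references reporting cirrhosis confirmed by histopathology.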
# 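Wherever Hepatotoxicity (cytolytic) is given: human cytolytic liver injury, shown by histopathology or by a ratio above 5 of peak ALT or AST elevation to alkaline phosphatase elevation, value counts indexed references.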
# 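Wherever Hepatotoxicity (granulomatous hepatitis) is given: value is a count of indexed literature references reporting granulomatous liver disease confirmed by histopathology.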
# 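Wherever Hepatotoxicity (malignant tumour) is given: malignant tumour confirmed by histopathology, value gives the count of indexed literature references reporting it.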
# 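Wherever Hepatotoxicity (severe hepatitis) is given: human clinical data: severe hepatitis, meaning potentially life-threatening liver failure or clinically observed cases, the value counts how many indexed literature references report it.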
# 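Wherever Hepatotoxicity (steatosis) is given: steatosis confirmed by histopathology, value is the count of indexed references.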
Structure (SMILES),Hepatotoxicity (steatosis) [1],Hepatotoxicity (time to onset) [2],Hepatotoxicity (malignant tumour) [3],Hepatotoxicity (association with vascular disease) [4],Hepatotoxicity (successful reintroduction) [5],Hepatotoxicity (acute) [6],Hepatotoxicity (benign tumour) [8],Hepatotoxicity (comment) [9],Hepatotoxicity (cirrhosis) [11],Hepatotoxicity (chronic liver disease) [17],Hepatotoxicity (moderate) [18],Hepatotoxicity (cytolytic) [7],Hepatotoxicity (acute) [10],Hepatotoxicity (severe hepatitis) [12],Hepatotoxicity (mechanism) [13],Hepatotoxicity (granulomatous hepatitis) [14],Hepatotoxicity (choleostasis) [15],Hepatotoxicity (moderate) [16],further results
Nc1ccc(S(=O)(=O)c2ccc(N)cc2)cc1 [DAPSONE],0,1 week - 1.5 years,0,0,yes,33,0,DUCTOPENIE,0,0,10,–,–,–,–,–,–,–,"Hepatotoxicity (cytolytic) ([7]; Liver): 15; Hepatotoxicity (acute) ([10]; Liver): 5%; Hepatotoxicity (severe hepatitis) ([12]; Liver): 6; Hepatotoxicity (mechanism) ([13]; Liver): Allergic, Dose-dependant; Hepatotoxicity (granulomatous hepatitis) ([14]; Liver): 3; Hepatotoxicity (choleostasis) ([15]; Liver): 13; Hepatotoxicity (moderate) ([16]; Liver): 20%"
CN1C(=O)CN=C(c2ccccc2)c2cc(Cl)ccc21 [DIAZEPAM],0,2 days - 9 years,0,0,yes,12,0,AC_ANTI-N/-M #CBP,0,0,1,3,0%,1,Allergic,1,9,7.1%,–
O=c1[nH]cnc2c1ncn2[C@H]1CC[C@@H](CO)O1 [DIDANOSINE],20,5 days - 8 years,0,0,yes,27,0,REACTIVATION_HVB/HVC I/PARACETAMOL,1,1,18,21,12.5%,13,"Dose-dependant, Mitochondrial toxicity",0,6,38.1%,–
CCCCOCC(CN1C(=O)N(CC(COCCCC)OC(N)=O)C(=O)C(CC)(c2ccccc2)C1=O)OC(N)=O (stereo not given) [DIFEBARBAMATE],1,8 days - 15 months,0,0,yes,9,0,AC_ANTI-N/-ML I/PAROXETINE,0,0,2,9,0%,5,Allergic,1,1,0%,–
NNc1nnc(NN)c2ccccc12 [DIHYDRALAZINE],1,2 days - 3 years,0,0,yes,21,0,AC_ANTI-MF/-M/-N/-CYP1A2,0,4,0,17,0.1%,1,Allergic,0,5,0%,–
